Drawing on patent publication US20110092476A1, “Bicycloheteroaryl compounds as P2X7 modulators and uses thereof” (Renovis, Inc., priority 2006, published 2011), this text covers inhibition for 27 compounds.

One test addresses T1, P2X7 receptor (Homo sapiens, UniProt Q99572).
T1 construct: host or cells: THP-1 cells differentiated with LPS and IFN-γ
T1 sequence (Q99572 1-595): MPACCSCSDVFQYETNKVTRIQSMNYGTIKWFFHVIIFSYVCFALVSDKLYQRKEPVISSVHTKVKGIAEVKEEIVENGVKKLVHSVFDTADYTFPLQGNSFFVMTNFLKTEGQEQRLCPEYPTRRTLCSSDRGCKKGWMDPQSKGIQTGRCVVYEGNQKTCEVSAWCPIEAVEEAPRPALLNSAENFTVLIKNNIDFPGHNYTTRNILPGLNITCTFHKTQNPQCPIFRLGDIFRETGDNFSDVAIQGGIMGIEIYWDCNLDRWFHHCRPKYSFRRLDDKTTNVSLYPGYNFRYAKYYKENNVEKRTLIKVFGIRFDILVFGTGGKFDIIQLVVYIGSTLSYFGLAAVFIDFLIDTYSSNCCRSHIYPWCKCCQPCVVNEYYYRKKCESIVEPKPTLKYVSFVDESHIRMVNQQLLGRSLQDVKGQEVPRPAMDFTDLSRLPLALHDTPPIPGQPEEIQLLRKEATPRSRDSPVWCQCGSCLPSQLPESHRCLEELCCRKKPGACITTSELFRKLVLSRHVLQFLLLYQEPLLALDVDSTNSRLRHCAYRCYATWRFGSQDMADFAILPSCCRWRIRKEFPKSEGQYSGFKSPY
Briefly: IL-1β release assay in differentiated THP-1 cells stimulated with BzATP (Example 9). The test is classed as cell-based. The conditions noted are these: 0.1 μM compound (symbols *); differentiated THP-1 cells, BzATP 250 uM; read-out: IL-1β % Inhib. @ 0.3 or 0.1 uM. Put shortly:
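THP-1 cells differentiated 16 h with 100 ng/mL LPS and 100 ng/mL IFN-γ, primed 2 h with fresh LPS, pretreated 30 min with compound, then stimulated 45 min with 250 uM BzATP (final). Supernatant IL-1β measured by ELISA; background-adjusted percent inhibition fitted to a four-parameter logistic for IC50.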
`Cc1c(Cl)cccc1C(=O)Nc1cccc2c(=O)n(CC(C)O)ccc12` (stereo not drawn) [Compound 172]: the inhibition at 0.1 µM was 51 to 75%.

Turning to `COc1ccc(C(=O)Nc2cccc3c(=O)n(CC(C)(C)O)ccc23)cc1Cl` [Compound 192], the inhibition at 0.1 µM was in the range of 0 to 25%.

Take `CC(O)Cn1ccc2c(NC(=O)c3ccc(-c4ccccc4)cc3)cccc2c1=O` (stereo not drawn) [Compound 146]: the inhibition at 0.1 µM was in the range of 0 to 25%.

As to `CCOc1ccc(C(=O)Nc2cccc3c(=O)n(CC4(O)CCCCC4)ccc23)cc1` [Compound 21], the inhibition at 0.1 µM was in the range of 0 to 25%.

In the case of `Cc1ccc(CCC(=O)Nc2cccc3c(=O)n(CC(C)O)ccc23)c(C)c1` (stereo not drawn) [Compound 184], the inhibition at 0.1 µM lay within 0 to 25%.

For the compound `CC(O)Cn1ccc2c(NC(=O)c3cccc4c3OCCO4)cccc2c1=O` (stereo not drawn) [Compound 170], the inhibition at 0.1 µM is 26 to 50%.

With `Cc1ccc(CC(=O)Nc2cccc3c(=O)n(CC(C)O)ccc23)cc1` (stereo not drawn) [Compound 162], the inhibition at 0.1 µM lay within 0 to 25%.

Regarding `Cc1cc(C)cc(CC(=O)Nc2cccc3c(=O)n(CC(C)O)ccc23)c1` (stereo not drawn) [Compound 173], the inhibition at 0.1 µM was 26 to 50%.

Turning to `COc1ccc(CC(=O)Nc2cccc3c(=O)n(CC(C)O)ccc23)c(OC)c1` (stereo not drawn) [Compound 174], the inhibition at 0.1 µM was 0 to 25%.

The same test, now with this note: 0.1 μM compound; differentiated THP-1 cells, BzATP 250 uM; "*" symbols; read-out: IL-1β % Inhib. @ 0.3 or 0.1 uM.
On to `COc1cccc(CC(=O)Nc2cccc3c(=O)n(CC(C)(C)O)ccc23)c1` [Compound 212], for which the inhibition at 0.1 µM lay within 26 to 50%.

In the case of `CC(C)(O)Cn1ccc2c(NC(=O)c3cc(Cl)ccc3Cl)cccc2c1=O` [Compound 199], the inhibition at 0.1 µM lay within 0 to 25%.

Turning to `Cc1cccc(CC(=O)Nc2cccc3c(=O)n(CC(C)(C)O)ccc23)c1` [Compound 213], the inhibition at 0.1 µM lay within 0 to 25%.

For `CC(C)(O)Cn1ccc2c(NC(=O)c3ccccc3Cl)cccc2c1=O` [Compound 197], the inhibition at 0.1 µM was in the range of 51 to 75%.

Still in this test, the particulars now being: 0.3 μM compound (symbols +); differentiated THP-1 cells, BzATP 250 uM; read-out: IL-1β % Inhib. @ 0.3 or 0.1 uM.
Turning to `COc1ccc(CCC(=O)Nc2cccc3c(=O)n(CC4(O)CCCCC4)ccc23)cc1` [Compound 25], the inhibition at 0.3 µM lay in the range of 0 to 25%.

With `O=C(Cc1cc(C(F)(F)F)ccc1C(F)(F)F)Nc1cccc2c(=O)n(CCO)ccc12` [Compound 70], the inhibition at 0.3 µM fell in the range of 26 to 50%.

Regarding `CS(=O)(=O)c1ccc(CCC(=O)Nc2cccc3c(=O)n(CCO)ccc23)cc1` [Compound 71], the inhibition at 0.3 µM fell in the range of 0 to 25%.

Take `CC(C)C(C(=O)Nc1cccc2c(=O)n(CCO)ccc12)c1ccc(Cl)cc1` (stereo not drawn) [Compound 78]: the inhibition at 0.3 µM was 0 to 25%.

The same test, now with this note: 0.3 μM compound; differentiated THP-1 cells, BzATP 250 uM; "+" symbols; read-out: IL-1β % Inhib. @ 0.3 or 0.1 uM.
In the case of `C[C@H](C(N)=O)n1ccc2c(NC(=O)c3cccc4ncccc34)cccc2c1=O` [Compound 272], the inhibition at 0.3 µM was in the range of 0 to 25%.

As for `C[C@@H](CO)n1ccc2c(NC(=O)Cc3ccc(C(F)(F)F)c(F)c3)cccc2c1=O` [Compound 336], the inhibition at 0.3 µM was greater than 76%.

On to `CC(C)(CO)n1ccc2c(NC(=O)Cc3ccc(F)c(Cl)c3)cccc2c1=O` [Compound 372], for which the inhibition at 0.3 µM lay within 0 to 25%.

As to `C[C@@H](CO)n1ccc2c(NC(=O)Cc3ccc(F)c(Cl)c3)cccc2c1=O` [Compound 331], the inhibition at 0.3 µM fell in the range of 51 to 75%.

In the case of `CNC(=O)[C@@H](C(C)C)n1ccc2c(NC(=O)[C@@H](C)c3ccc(Cl)cc3)cccc2c1=O` [Compound 276, (R)-2-{5-[(S)-2-(4-Chloro-phenyl)-propionylamino]-1-oxo-1H-isoquinolin-2-yl}-3,N-dimethyl-butyramide], the inhibition at 0.3 µM was greater than 76%.

As to `CNC(=O)[C@@H](CO)n1ccc2c(NC(=O)C(C)c3ccc(Cl)cc3)cccc2c1=O` (stereo partly drawn) [Compound 261], the inhibition at 0.3 µM was in the range of 51 to 75%.

Take `C[C@H](C(N)=O)n1ccc2c(NC(=O)Cc3ccc(F)cc3C(F)(F)F)cccc2c1=O` [Compound 295]: the inhibition at 0.3 µM lay within 51 to 75%.

With `O=C(Cc1ccc(Cl)cc1C(F)(F)F)Nc1cccc2c(=O)n(CCO)ccc12` [Compound 229], the inhibition at 0.3 µM was in the range of 51 to 75%.

For the compound `C[C@@H](C(=O)Nc1cccc2c(=O)n([C@@H](C)CO)ccc12)c1ccc(Cl)c(Cl)c1` [Compound 317], the inhibition at 0.3 µM is greater than 76%.

Turning to `C[C@@H](C(N)=O)n1ccc2c(NC(=O)Cc3ccc(C(F)(F)F)c(F)c3)cccc2c1=O` [Compound 347], the inhibition at 0.3 µM was greater than 76%.
